Test results from US10440955B2, “Methods comprising a biocidal polyamine” (Curza Global, LLC, priority 2013, dated 2019).
Counter-ions that a name gives are not always drawn.

Experiments:
[1] = system: A. baumannii biofilms; test: EBEC, high number biofilms on PEEK membranes, 10^9 to 10^2 CFU/PEEK membrane in 24 hours; format: cell-based, Acinetobacter baumannii
Procedure: (§1) In addition to determining the MIC and the MBEC of polyamine compounds against planktonic bacteria and low number biofilms, our group wanted to determine the efficacy of polyamine compounds against high number biofilms. To do so, biofilms were grown on the surface of polyetheretherketone (PEEK) membranes using a membrane biofilm reactor. This reactor is similar to the CDC biofilm reactor, but rather than growing biofilms on coupon surfaces, the reactor was modified to hold PEEK membranes. In short, to grow biofilms within this system, 500 mL of brain heart infusion (BHI) broth were inoculated with 1 mL of a 0.5 McFarland. The reactor was placed on a hot plate set at 34° C. and the bacteria were grown under batch conditions for 24 hours. Following this protocol, biofilms typically grow to 10^9 CFU/PEEK membrane. […] A solution of 10% BHI was then flowed through the reactor at a rate of 6.94 mL/min for an additional 24 hours. PEEK membranes were then removed and placed into 2 mL of CAMHB that contained a desired concentration of polyamine compound or antibiotic. The EBEC was defined as the concentration of antimicrobial required to reduce a biofilm from approximately 10^9 CFU/PEEK membrane to approximately 10^2 CFU/PEEK membrane in a 24-hour period.
(§2) In addition to determining the MIC and the MBEC of compounds against planktonic bacteria and low number biofilms, the efficacy of the compounds of the invention against high number biofilms is determined. To do so, biofilms are grown on the surface of PEEK membranes using a membrane biofilm reactor (Williams, D. L., Haymond, B. S. & Bloebaum, R. D. Use of delrin plastic in a modified CDC biofilm reactor. Res J Microbiol 6, 425-429 (2011); Williams, D. L., Woodbury, K. L., Haymond, B. S., Parker, A. E. & Bloebaum, R. D. A modified CDC biofilm reactor to produce mature biofilms on the surface of PEEK membranes for an in vivo animal model application. Curr Microbiol 62, 1657-1663 (2011); Williams, D. L. et al., In Vivo Efficacy of a Silicone—Cationic Steroid Antimicrobial Coating to Prevent Implant-Related Infection. Biomaterials 33, 8641-8656 (2012); Williams, D. L. et al., Experimental model of biofilm implant-related osteomyelitis to test combination biomaterials using biofilms as initial inocula. J Biomed Mat Res A 100, 1888-1900 (2012)). This reactor is similar to the CDC biofilm reactor, but rather than growing biofilms on coupon surfaces, the reactor was modified to hold PEEK membranes. In short, to grow biofilms within this system, 500 mL of brain heart infusion (BHI) broth is inoculated with 1 mL of a 0.5 McFarland. The reactor is placed on a hot plate set at 34° C. and the bacteria grown under batch conditions for 24 hours. A solution of 10% BHI will then be flowed through the reactor at a rate of 6.94 mL/min for an additional 24 hours. Following this protocol, biofilms typically grow to 10^9 CFU/PEEK membrane. PEEK membranes is removed and placed into 2 mL of CAMHB that contain a desired concentration of the test compound. The EBEC is defined as the concentration of antimicrobial required to reduce a biofilm from approximately 10^9 CFU/PEEK membrane to approximately 10^2 CFU/PEEK membrane in a 24-hour period.
EBEC data were collected to determine the efficacy of CZ-52, CZ-58 and traditional antibiotics against high number biofilms containing approximately 10^9 CFU grown on the surface of a polyetheretherketone (PEEK) membrane. […] In contrast, at 250 μg/mL CZ-52 was able to reduce MRSA biofilms by greater than 7 log10 units in a 24-hour period. Although the MIC of CZ-58 was lower against MRSA compared to A. baumannii, CZ-58 had greater activity against biofilms of A. baumannii than against MRSA biofilms in the EBEC assay. […] Although the MIC of CZ-58 was “high” compared to MICs of traditional antibiotics, the efficacy against biofilms was promising.

[2] = system: MRSA biofilms; test: as above; format: cell-based, Staphylococcus aureus
Procedure: as §1, §2
EBEC data were collected to determine the efficacy of CZ-52, CZ-58 and traditional antibiotics against high number biofilms containing approximately 10^9 CFU grown on the surface of a polyetheretherketone (PEEK) membrane.

[3] = system: L-929 cells (ATCC CCL-1); test: Minimal Essential Media (MEM) Elution cytotoxicity test; format: cell-based
In short: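 L-929 cells (ATCC CCL-1) were seeded in multiwell plates and grown to roughly 80% confluence. Test article dilutions (1:2, 1:4, 1:8, 1:16) and control extracts were applied in triplicate and incubated 48±3 hours at 37±1° C. in 5±1% CO2. Wells were scored microscopically for morphological cytotoxicity on a 0–4 scale and averaged; Pass required grade not greater than 2 per USP <87>.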

NCCCNCCCNCc1ccccc1 [CZ-7, benzylnorspermidine]
EBEC μg/mL (μM) A. baumannii ([1]; Table 4): >10,000 μg/mL | EBEC μg/mL (μM) A. baumannii ([1]; Table 4, value in parentheses): (>45,180) μM | EBEC μg/mL (μM) MRSA ([2]; Table 4): >5,000 μg/mL | EBEC μg/mL (μM) MRSA ([2]; Table 4, value in parentheses): (>22,590) μM

NCCCNCCCNCc1cccc(CNCCCNCCCN)c1 [CZ-25, N^1,N^1′-(1,3-phenylenebis(methylene))bis(N3-(3-ammoniopropyl)propane-1,3-diaminium) chloride]
EBEC μg/mL (μM) A. baumannii ([1]; Table 4): ~7,500 μg/mL | EBEC μg/mL (μM) MRSA ([2]; Table 4): >5,000 μg/mL

NCCCNCCCNCc1cc(CNCCCNCCCN)cc(CNCCCNCCCN)c1 [CZ-52, N^1,N^1′,N^1″-(benzene-1,3,5-triyltris(methylene))tris(N^3-(3-aminopropyl)propane-1,3-diamine), hydrochloride salt]
Results Pass/Fail ([3]; Table 9A, 3.125 μg/mL): Pass (receives a passing score (Pass) if the reactivity grade is not greater than grade 2 or a mild reactivity) | Results Pass/Fail ([3]; Table 9A, 6.25 μg/mL): Fail (a numerical grade greater than 2 is considered a cytotoxic effect, or a failing score (Fail)) | Results Pass/Fail ([3]; Table 9A, 12.5 μg/mL): Fail (a numerical grade greater than 2 is considered a cytotoxic effect, or a failing score (Fail)) | Results Pass/Fail ([3]; Table 9A, 25 μg/mL): Fail (a numerical grade greater than 2 is considered a cytotoxic effect, or a failing score (Fail)) | Results Pass/Fail ([3]; Table 9A, 1.563 (unit not given)): Pass (receives a passing score (Pass) if the reactivity grade is not greater than grade 2 or a mild reactivity) | EBEC μg/mL (μM) A. baumannii ([1]; Table 4): ~7,000 μg/mL | EBEC μg/mL (μM) A. baumannii ([1]; Table 4, value in parentheses): (~14,000) μM | EBEC μg/mL (μM) MRSA ([2]; Table 4): 250 µg/mL | EBEC μg/mL (μM) MRSA ([2]; Table 4, value in parentheses): (500) μM

NCCCNCCCNCc1cc(CNCCCNCCCN)cc(-c2ccccc2)c1 [CZ-58, N^1,N^1′-([1,1′-biphenyl]-3,5-diylbis(methylene))bis(N^3-(3-ammoniopropyl)propane-1,3-diaminium) chloride]
Results Pass/Fail ([3]; Table 10A, 25 μg/mL): Fail (a numerical grade greater than 2 is considered a cytotoxic effect, or a failing score (Fail)) | Results Pass/Fail ([3]; Table 10A, dilution 1:2 of 25 μg/mL): Fail (a numerical grade greater than 2 is considered a cytotoxic effect, or a failing score (Fail)) | Results Pass/Fail ([3]; Table 10A, dilution 1:4 of 25 μg/mL): Pass (receives a passing score (Pass) if the reactivity grade is not greater than grade 2 or a mild reactivity) | Results Pass/Fail ([3]; Table 10A, dilution 1:8 of 25 μg/mL): Pass (receives a passing score (Pass) if the reactivity grade is not greater than grade 2 or a mild reactivity) | Results Pass/Fail ([3]; Table 10A, dilution 1:16 of 25 μg/mL): Pass (receives a passing score (Pass) if the reactivity grade is not greater than grade 2 or a mild reactivity) | EBEC μg/mL (μM) A. baumannii ([1]; Table 4): 400 µg/mL | EBEC μg/mL (μM) MRSA ([2]; Table 4): 1,500 μg/mL

CC(C)CNCCCNCCCNCc1cc(CNCCCNCCCNCC(C)C)cc(-c2ccccc2)c1 [CZ-86, N^1,N^1′-([1,1′-biphenyl]-3,5-diylbis(methylene))bis(N^3-(3-(isobutylamino)propyl)propane-1,3-diamine), hydrochloride salt]
Results Pass/Fail ([3]; Table 8A, 400 μg/mL): Fail (a numerical grade greater than 2 is considered a cytotoxic effect, or a failing score (Fail)) | Results Pass/Fail ([3]; Table 8A, dilution 1:2 of 400 μg/mL): Fail (a numerical grade greater than 2 is considered a cytotoxic effect, or a failing score (Fail)) | Results Pass/Fail ([3]; Table 8A, dilution 1:4 of 400 μg/mL): Fail (a numerical grade greater than 2 is considered a cytotoxic effect, or a failing score (Fail)) | Results Pass/Fail ([3]; Table 8A, dilution 1:8 of 400 μg/mL): Pass (receives a passing score (Pass) if the reactivity grade is not greater than grade 2 or a mild reactivity) | Results Pass/Fail ([3]; Table 8A, dilution 1:16 of 400 μg/mL): Pass (receives a passing score (Pass) if the reactivity grade is not greater than grade 2 or a mild reactivity)

CN[C@H](CC(C)C)C(=O)N[C@H]1C(=O)N[C@@H](CC(N)=O)C(=O)N[C@H]2C(=O)N[C@H]3C(=O)N[C@H](C(=O)N[C@H](C(=O)O)c4cc(O)cc(O)c4-c4cc3ccc4O)[C@H](O)c3ccc(c(Cl)c3)Oc3cc2cc(c3O[C@@H]2O[C@H](CO)[C@@H](O)[C@H](O)[C@H]2O[C@H]2C[C@](C)(N)[C@H](O)[C@H](C)O2)Oc2ccc(cc2Cl)[C@H]1O [vancomycin, reference compound]
EBEC μg/mL (μM) MRSA ([2]; Table 4): >>25,000 μg/mL | reduction of biofilms of MRSA ([2]; at 25,000 μg/mL, 24-hour period): < 1 log10 unit

Polymyxin B sulfate [reference compound]
EBEC μg/mL (μM) A. baumannii ([1]; Table 4): 1,000 μg/mL | EBEC μg/mL (μM) A. baumannii ([1]; Table 4, value in parentheses): (722) μM
